Test results: publication PMC7252514 (Science (New York, N.Y.), 2019)

What was measured:
PSAM^4-5HT3 [1] = molecular target: T1, PSAM^4-5HT3 (Homo sapiens, UniProt P36544, L131G/Q139L/Y217F, form not given, species not given); assay: Membrane potential; type: cell-based; details: endogenous ligands
PgP = details: cited from earlier work
[2] = molecular target: α7^L131G,Q139L,Y217F-GlyR (PSAM^4-GlyR) (Homo sapiens, UniProt P36544, L131G/Q139L/Y217F); assay: Membrane potential; type: cell-based
[3] = molecular target: α7^L131G,Q139L,Y217F-GlyR (Homo sapiens, UniProt P23415+P36544, L131G/Q139L/Y217F); assay: Electrophysiological recordings from HEK-293 cells expressing PSAM4-GlyR; type: cell-based
α7 nAChR = α7 nAChR (Homo sapiens, UniProt P36544); assay: Agonist activity at α7 nAChR; type: cell-based
Sequence of α7 nAChR (P36544 23-502): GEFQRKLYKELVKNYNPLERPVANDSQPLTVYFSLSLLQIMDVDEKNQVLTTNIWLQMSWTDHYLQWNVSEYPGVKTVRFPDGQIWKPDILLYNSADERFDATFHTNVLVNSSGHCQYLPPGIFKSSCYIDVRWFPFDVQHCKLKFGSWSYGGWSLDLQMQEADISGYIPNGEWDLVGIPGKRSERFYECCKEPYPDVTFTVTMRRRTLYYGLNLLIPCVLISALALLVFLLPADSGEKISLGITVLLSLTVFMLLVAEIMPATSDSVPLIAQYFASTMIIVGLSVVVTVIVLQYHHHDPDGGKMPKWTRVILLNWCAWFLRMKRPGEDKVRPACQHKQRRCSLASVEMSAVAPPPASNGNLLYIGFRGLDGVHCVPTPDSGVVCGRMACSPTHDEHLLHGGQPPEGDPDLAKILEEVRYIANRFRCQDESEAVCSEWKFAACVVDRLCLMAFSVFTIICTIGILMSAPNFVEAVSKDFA

α7^L131G-GlyR = assay: Membrane potential; type: cell-based; details: α7L131G-GlyR versus parent channel
Food intake = type: in vivo, mice; details: elevated doses
[4] = system: PSAM^4-5HT3 HC-expressing layer 2/3 cortical neurons; assay: Depolarization of layer 2/3 cortical neurons expressing PSAM4-5HT3 HC; details: varenicline 15 nM
[5] = cited from earlier work
[6] = system: PSAM^4-GlyR in SNr GABAergic neurons; assay: Unilateral SNr silencing rotation assay in PSAM4-GlyR mice; type: in vivo
[7] = system: cultured hippocampal neurons expressing PSAM^4-GlyR; assay: Continuous silencing of cultured hippocampal neurons expressing PSAM4-GlyR; type: cell-based; details: varenicline 15 nM for 3 – 18 days
PSAM^4-5HT3 [8] = molecular target: T1, PSAM^4-5HT3; assay: Electrophysiology of PSAM4-5HT3 currents; type: cell-based; details: off-rate
[9] = system: PSAM^4-GlyR-expressing layer 2/3 cortical neurons; type: cell-based, mice; details: varenicline 10 – 16 nM
[10] = system: cultured hippocampal neuron expressing PSAM^4-5HT3; assay: Sustained depolarization of cultured hippocampal neurons by PSAM4-5HT3; details: continuous varenicline 15 nM exposure
[11] = system: PSAM^4-GlyR in GPi neurons; assay: In vivo electrophysiology of GPi neurons transduced with PSAM4-GlyR; set-up: species or system rhesus monkey; details: subcutaneous 0.1 mg/kg, versus varenicline prior to AAV transduction

T1 sequence (P23979 242-489, form open): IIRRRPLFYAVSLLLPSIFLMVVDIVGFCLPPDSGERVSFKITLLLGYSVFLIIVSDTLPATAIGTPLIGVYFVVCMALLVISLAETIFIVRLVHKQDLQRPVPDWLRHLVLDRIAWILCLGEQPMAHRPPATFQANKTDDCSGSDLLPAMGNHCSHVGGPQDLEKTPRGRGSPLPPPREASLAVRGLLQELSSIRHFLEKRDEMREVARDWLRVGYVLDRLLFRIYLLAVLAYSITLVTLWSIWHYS
T1 sequence (P36544 23-224 L131G/Q139L/Y217F, form open): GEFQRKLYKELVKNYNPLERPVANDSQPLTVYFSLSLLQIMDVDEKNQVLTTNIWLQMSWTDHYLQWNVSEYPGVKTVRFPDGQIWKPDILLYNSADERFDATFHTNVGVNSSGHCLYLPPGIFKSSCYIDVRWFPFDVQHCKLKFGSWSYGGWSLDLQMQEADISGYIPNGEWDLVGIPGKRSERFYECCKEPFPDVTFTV
Sequence of α7^L131G,Q139L,Y217F-GlyR (PSAM^4-GlyR) (P36544 23-229 L131G/Q139L/Y217F): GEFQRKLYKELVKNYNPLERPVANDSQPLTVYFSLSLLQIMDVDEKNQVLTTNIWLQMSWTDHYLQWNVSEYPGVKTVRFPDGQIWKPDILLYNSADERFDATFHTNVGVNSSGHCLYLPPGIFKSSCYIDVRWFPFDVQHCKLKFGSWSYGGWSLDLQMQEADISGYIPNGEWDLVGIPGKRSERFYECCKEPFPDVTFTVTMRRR
Sequence of α7^L131G,Q139L,Y217F-GlyR (PSAM^4-GlyR) (P23415 248-457 partner): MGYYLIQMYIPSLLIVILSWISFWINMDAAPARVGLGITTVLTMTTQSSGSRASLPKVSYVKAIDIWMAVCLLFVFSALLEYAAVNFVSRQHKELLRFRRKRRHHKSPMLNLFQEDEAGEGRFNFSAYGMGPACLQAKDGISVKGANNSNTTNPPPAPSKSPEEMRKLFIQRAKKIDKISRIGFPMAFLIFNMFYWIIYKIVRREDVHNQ

**Q.** Which “potency at PSAM4-5HT3” value (PSAM^4-5HT3 [1]) does the source give for CC(=O)OCC[N+](C)(C)C [ACh, acetylcholine] here?
**A.** Its value is “low potencies”.

**Q.** For C[N+]1([O-])CCN(C2=Nc3cc(Cl)ccc3Nc3ccccc32)CC1 [CNO, clozapine-N-oxide], which PgP substrate (PgP) is on record?
**A.** Its PgP substrate is “substrate for the P-glycoprotein efflux pump”.

**Q.** For C[N+](C)(C)CCO [choline], which “potency at PSAM4-5HT3” value (PSAM^4-5HT3 [1]) is on record?
**A.** Its value is “low potencies”.

**Q.** What about the EC50 [2] of the same molecule?
**A.** Its EC50 is 128 ± 32 µM.

**Q.** Which response to glycine [3] does the source give for NCC(=O)O [glycine] here?
**A.** The response to glycine was “did not respond”.

**Q.** For CN1C2CCCC1CC(NC(=O)c1nn(C)c3ccccc13)C2 (centres unmarked) [granisetron], which “agonist activity at α7 nAChR” value (α7 nAChR) is on record?
**A.** The value was “no agonist activity”.

**Q.** Which potency enhancement (α7^L131G-GlyR) does the source give for CN1[C@@H]2CC[C@H]1C[C@@H](OC(=O)c1c[nH]c3ccccc13)C2 [tropisetron] here?
**A.** The potency enhancement was 3 fold.

**Q.** Which food intake (Food intake) does the source give for c1cnc2cc3c(cc2n1)[C@@H]1CNC[C@H]3C1 [varenicline] here?
**A.** The food intake was “reduced”.

**Q.** And the depolarization [4]?
**A.** The depolarization was “+17.2 ± 2.4 mV”.

**Q.** What about the brain penetrance [5] of the same molecule?
**A.** Its brain penetrance is “excellent brain penetrance”.

**Q.** What about the “time for rotation activity to return nearly to baseline” value ([6]; intraperitoneal) of the same molecule?
**A.** The value was about 4 h.

**Q.** What about the “time to evident behavioral effects of silencing” value ([6]; intraperitoneal) of the same molecule?
**A.** The value was at most 20 min.

**Q.** What about the “lowest effective dose (LED)” value ([6]; intraperitoneal, onset of rotation, with amphetamine 3 mg/kg) of the same molecule?
**A.** Its value is 0.1 mg/kg.

**Q.** And the “circling after oral delivery” value ([6]; oral delivery 5 μg/mL)?
**A.** Its value is “elicited circling”.

**Q.** What about the potency enhancement (α7^L131G-GlyR) of the same molecule?
**A.** The potency enhancement was 17 fold.

**Q.** What about the PgP substrate (PgP) of the same molecule?
**A.** Its PgP substrate is “not a PgP substrate”.

**Q.** And the “rheobase under constant exposure” value [7]?
**A.** Its value is “maintained elevated rheobase”.

**Q.** What about the t-off1/2 (PSAM^4-5HT3 [8]) of the same molecule?
**A.** The t-off1/2 was 3.2 ± 1.3 min.

**Q.** What about the “increase of current amplitude required to fire an action potential (rheobase)” value [9] of the same molecule?
**A.** The value was 6 fold.

**Q.** And the suppression of firing [9]?
**A.** The suppression of firing was “strongly suppressed firing”.

**Q.** And the “reduction of input resistance” value ([9]; on average)?
**A.** The value was 3 fold.

**Q.** What about the “duration of sustained depolarization” value [10] of the same molecule?
**A.** The value was 14 to 22 days.

**Q.** And the “GPi neuron firing rate and burst firing rate” value [11]?
**A.** The value was “significantly inhibited”.
